The text below walks through data of patent publication US20230031406A1, “COMPOUNDS AND COMPOSITIONS FOR TREATING CONDITIONS ASSOCIATED WITH NLRP ACTIVITY” (Novartis AG, priority 2018, published 2023).

The assay has as its system PMA-differentiated THP-1 cells. As to the kind of experiment: IL-1β production in PMA-differentiated THP-1 cells stimulated with gramicidin (hTHP-1 assay containing 2% fetal bovine serum; Procedures 1 and 2). The assay is classed as cell-based, human. The conditions noted are these: 2% fetal bovine serum. On the procedure:
The following protocol is suitable for testing the activity of the compounds disclosed herein. Procedure 1: IL-1β Production in PMA-Differentiated THP-1 Cells Stimulated with Gramicidin.
THP-1 cells were purchased from the American Type Culture Collection and sub-cultured according to instructions from the supplier. Cells were cultured in complete RPMI 1640 (containing 10% heat inactivated FBS, penicillin (100 units/ml) and streptomycin (100 μg/ml)), and maintained in log phase prior to experimental setup. Prior to the experiment, compounds were dissolved in dimethyl sulfoxide (DMSO) to generate a 30 mM stock. The compound stock was first pre-diluted in DMSO to 3, 0.34, 0.042 and 0.0083 mM intermediate concentrations and subsequently spotted using Echo550 liquid handler into an empty 384-well assay plate to achieve desired final concentration (e.g. 100, 33, 11, 3.7, 1.2, 0.41, 0.14, 0.046, 0.015, 0.0051, 0.0017 μM). DMSO was backfilled in the plate to achieve a final DMSO assay concentration of 0.37%. The plate was then sealed and stored at room temperature until required.
THP-1 cells were treated with PMA (Phorbol 12-myristate 13-acetate) (20 ng/ml) for 16-18 hours. On the day of the experiment the media was removed and adherent cells were detached with trypsin for 5 minutes. Cells were then harvested, washed with complete RPMI 1640, spun down, and resuspended in RPMI 1640 (containing 2% heat inactivated FBS, penicillin (100 units/ml) and streptomycin (100 μg/ml). The cells were plated in the 384-well assay plate containing the spotted compounds at a density of 50,000 cells/well (final assay volume 50 μl). Cells were incubated with compounds for 1 hour and then stimulated with gramicidin (5 μM) (Enzo) for 2 hours. Plates were then centrifuged at 340 g for 5 min. Cell free supernatant (40 μL) was collected using a 96—CHannel PlateMaster (Gilson) and the production of IL-1β was evaluated by HTRF (cisbio). The plates were incubated for 18 h at 4° C. and read using the preset HTRF program (donor emission at 620 nm, acceptor emission at 668 nm) of the SpectraMax i3x spectrophotometer (Molecular Devices, software SoftMax 6). A vehicle only control and a dose titration of CRID3 (100-0.0017 μM) were run concurrently with each experiment.
Procedure 2: IL-1β Production in PMA-Differentiated THP-1 Cells Stimulated with Gramicidin.
THP-1 cells were purchased from the American Type Culture Collection and sub-cultured according to instructions from the supplier. Prior to experiments, cells were cultured in complete RPMI 1640 (containing 10% heat inactivated FBS, penicillin (100 units/ml) and streptomycin (100 μg/ml)), and maintained in log phase prior to experimental setup. Prior to the experiment THP-1 were treated with PMA (Phorbol 12-myristate 13-acetate) (20 ng/ml) for 16-18 hours. Compounds were dissolved in dimethyl sulfoxide (DMSO) to generate a 30mM stock. On the day of the experiment the media was removed and adherent cells were detached with trypsin for 5 minutes. Cells were then harvested, washed with complete RPMI 1640, spun down, resuspended in RPMI 1640 (containing 2% heat inactivated FBS, penicillin (100 units/ml) and streptomycin (100 μg/ml). The cells were plated in a 384-well plate at a density of 50,000 cells/well (final assay volume […]). Compounds were first dissolved in assay medium to obtain a 5× top concentration of 500 μM. 10 step dilutions (1:3) were then undertaken in assay medium containing 1.67% DMSO. 5× compound solutions were added to the culture medium to achieve desired final concentration (e.g. 100, 33, 11, 3.7, 1.2, 0.41, 0.14, 0.046, 0.015, 0.0051, 0.0017 μM). Final DMSO concentration was at 0.37%. Cells were incubated with compounds for 1 hour and then stimulated with gramicidin (5 μM) (Enzo) for 2 hours. Plates were then centrifuged at 340 g for 5 min. Cell free supernatant (40 μL) was collected using a 96—CHannel PlateMaster (Gilson) and the production of IL-1β was evaluated by HTRF (cisbio). […]

Where [1] appears, read: Table B3, hTHP-1 assay, class symbols, read-out: IC50.
[2] abbreviates: Homo sapiens, THP-1, Table B1, numeric bounds, read-out: Average IC50 of compounds in hTHP-1 assay: hTHP-1 IC50.
[3] abbreviates: Table B1, class symbols, read-out: Average IC50 of compounds in hTHP-1 assay: hTHP-1 IC50.
Setting [4] is: Table B2, class symbols, read-out: hTHP-1 IC50.
Where [5] appears, read: Homo sapiens, THP-1, Table B2, class symbols, read-out: hTHP-1 IC50.

Like-named read-outs stand apart in the source and are kept apart here.

On to `Cc1c(C(C)C)nc2c(c1NC(=O)N=S(N)(=O)c1ccn(C(C)C)n1)CCC2` (single isomer, unassigned) [Compound 644a, (S) or (R)-1-Isopropyl-N′-((2-isopropyl-3-methyl-6,7-dihydro-5H-cyclopenta[b]pyridin-4-yl)carbamoyl)-1H-pyrazole-3-sulfonimidamide], for which the concentration for half-maximal inhibition (IC50) (Homo sapiens, THP-1, Table B2, numeric bounds, read-out: hTHP-1 IC50) was more than 30 µM.
Turning to `Cc1nc2c(c(NC(=O)N=S(N)(=O)c3nn(C(F)F)cc3F)c1-c1ccccc1)CCC2` (single isomer, unassigned) [Example 728, (S) or (R)-1-(difluoromethyl)-4-fluoro-N′-((2-methyl-3-phenyl-6,7-dihydro-5H-cyclopenta[b]pyridin-4-yl)carbamoyl)-1H-pyrazole-3-sulfonimidamide], under setting [1], the half-maximal inhibitory concentration (IC50) lay within 1 to 5 µM.
In the case of `CC(C)(O)c1csc(S(N)(=O)=NC(=O)Nc2c3c(nc4c2CCC4(C)C)CCC3)c1` (centres unmarked) [Compound 127, N′-((3,3-dimethyl-1,2,3,5,6,7-hexahydrodicyclopenta[b,e]pyridin-8-yl)carbamoyl)-4-(2-hydroxypropan-2-yl)thiophene-2-sulfonimidamide], for the setting “Homo sapiens, THP-1, Table B1, class symbols, read-out: Average IC50 of compounds in hTHP-1 assay: hTHP-1 IC50”, the IC50 is 0.04 to 0.2 µM.
As for `CC(C)(O)c1cc(F)c(S(N)(=O)=NC(=O)Nc2c3c(nc(C4CC4)c2C2CC2)CCC3)s1` (centres unmarked) [Example 570, N′-((2,3-dicyclopropyl-6,7-dihydro-5H-cyclopenta[b]pyridin-4-yl)calbamoyl)-3-fluoro-5-(2-hydroxypropan-2-yl)thiophene-2-sulfonimidamide], the IC50 (Homo sapiens, THP-1, Table B3, hTHP-1 assay, class symbols, read-out: IC50) was 0.2 to 1 µM.
With `Cn1nc(S(N)(=O)=NC(=O)Nc2c3c(nc4c2CCC4)CCC3)cc1C(C)(C)O` (single isomer, unassigned) [Compound 158b, (S) or (R)-N′-((1,2,3,5,6,7-hexahydrodicyclo-penta[b,e]pyridin-8-yl)carbamoyl)-5-(2-hydroxypropan-2-yl)-1-methyl-1H-pyrazole-3-sulfonimidamide], the IC50 under setting [2] is more than 30 µM.
Turning to `CCn1ccc(S(N)(=O)=NC(=O)Nc2c3c(nc(C4CC4)c2C2CC2)CCC3)n1` (single isomer, unassigned) [Example 699, (R) or (S)-N′-((2,3-dicyclopropyl-6,7-dihydro-5H-cyclopenta[b]pyridin-4-yl)carbamoyl)-1-ethyl-1H-pyrazole-3-sulfonimidamide], under setting [1], the IC50 fell in the range of 0.2 to 1 µM.
Regarding `CC(C)(O)c1ncc(S(N)(=O)=NC(=O)Nc2c3c(nc4c2CCC4F)CCC3)s1` (single isomer, unassigned) [Compound 183c, (R,S) or (R,R)-N′-((3-fluoro-1,2,3,5,6,7-hexahydrodicyclo-penta[b,e]pyridin-8-yl)carbamoyl)-2-(2-hydroxypropan-2-yl)thiazole-5-sulfonimidamide], under setting [3], the IC50 was in the range of 5 to 30 µM.
Consider `CC1CCc2c1nc1c(c2NC(=O)N=S(N)(=O)c2cnn(C(C)C)c2)CCC1` (single isomer, unassigned) [Compound 171c, (R, R) and (R, S) or (S, R) and (S, S)-1-Isopropyl-N′-((3-methyl-1,2,3,5,6,7-hexahydrodicyclopenta [b,e]pyridin-8-yl)carbamoyl)-1H-pyrazole-4-sulfonimidamide], for which the IC50 under setting [4] was in the range of 1 to 5 µM.
Turning to `CC(C)(O)c1cc(F)c([S@](N)(=O)=NC(=O)Nc2c3c(nc(C4CC4)c2C2CC2)CCC3)s1` [Compound 727b], the IC50 under setting [5] fell in the range of 0.04 to 0.2 µM.
Regarding `CC1CCc2c1nc1c(c2NC(=O)N=S(N)(=O)c2ccc(CN(C)C)cc2)CCC1` (single isomer, unassigned) [Compound 134aa, (S,S) or (S,R)-4-((di-methylamino)methyl)-N′-((3-methyl-1,2,3,5,6,7-hexahydrodicyclo-penta[b,e]pyridin-8-yl)carbamoyl)benzene-sulfonimidamide], the IC50 under setting [2] was more than 30 µM.
`COCc1nc(C(C)(C)O)sc1S(N)(=O)=NC(=O)Nc1c2c(nc3c1CCC3(C)C)CCC2` (single isomer, unassigned) [Compound 170b, (S) or (R)-N′-((3,3-dimethyl-1,2,3,5,6,7-hexahydrodicyclopenta [b,e]pyridin-8-yl)carbamoyl)-2-(2-hydroxypropan-2-yl)-4-(methoxymethyl) thiazole-5-sulfonimidamide]: under setting [4], the IC50 was in the range of 5 to 30 µM.
Take `CC(C)n1cc(Cl)c(S(N)(=O)=NC(=O)Nc2c3c(nc4c2CCC4)CCC3)n1` (single isomer, unassigned) [Compound 694b, (R) or (S)-4-Chloro-N′-((1,2,3,5,6,7-hexahydrodicyclopenta [b,e]pyridin-8-yl)carbamoyl)-1-isopropyl-1H-pyrazole-3-sulfonimidamide]: under setting [5], the IC50 is 1 to 5 µM.
For the compound `CCc1c(C(F)(F)F)nc2c(c1NC(=O)N=S(N)(=O)c1sc(C(C)(C)O)cc1F)CCC2` (single isomer, unassigned) [Compound 611b, (R) or (S)-N′-((3-ethyl-2-(trifluoromethyl)-6,7-dihydro-5H-cyclopenta[b]pyridin-4-yl)carbamoyl)-3-fluoro-5-(2-hydroxypropan-2-yl)thiophene-2-sulfonimidamide], the concentration for half-maximal inhibition (IC50) under setting [4] was in the range of 0.2 to 1 µM.
In the case of `CC(C)(O)c1cc(F)c(S(N)(=O)=NC(=O)Nc2c3c(nc4c2CCC42CC2)CCC3)s1` (single isomer, unassigned) [Compound 101a, (S) or (R)-3-fluoro-5-(2-hydroxypropan-2-yl)-N′-((1′,5′,6′,7′-tetrahydro-2′H-spiro[cyclopropane-1,3′-dicyclopenta[b,e]pyridin]-8′-yl)carbamoyl)thiophene-2-sulfonimidamide], the half-maximal inhibitory concentration (IC50) under setting [3] lay in the range of 1 to 5 µM.
With `Cc1c(C(C)C)nc2c(c1NC(=O)N=S(N)(=O)c1cnc(C(C)(C)O)s1)CCC2` (centres unmarked) [Compound 650, 2-(2-Hydroxypropan-2-yl)-N′-((2-isopropyl-3-methyl-6,7-dihydro-5H-cyclopenta[b]pyridin-4-yl)carbamoyl)thiazole-5-sulfonimidamide], under setting [5], the IC50 lay within 0.2 to 1 µM.
Take `CC(C)(O)c1sc(S(N)(=O)=NC(=O)Nc2c3c(nc4c2CCC42CC2)CCC3)cc1F` (single isomer, unassigned) [Compound 614b, (S) or (R)-4-Fluoro-5-(2-hydroxypropan-2-yl)-N′-((1′,5′,6′,7′-tetrahydro-2′H-spiro[cyclopropane-1,3′-dicyclopenta[b,e]pyridin]-8′-yl)carbamoyl) thiophene-2-sulfonimidamide]: the IC50 under setting [4] lay in the range of 1 to 5 µM.
Take `CCn1cc(F)c(S(N)(=O)=NC(=O)Nc2c3c(nc(C)c2-c2ccccc2)CCC3)n1` (single isomer, unassigned) [Example 770, (S) or (R)-1-ethyl-4-fluoro-N′-((2-methyl-3-phenyl-6,7-dihydro-5H-cyclopenta[b]pyridin-4-yl)carbamoyl)-1H-pyrazole-3-sulfonimidamide]: the IC50 (Table B4, class symbols, read-out: hTHP-1 IC50) was 0.04 to 0.2 µM.
